According to patent US20230302033A1, “FORMULATIONS OF NICOTINIC ACID DERIVATIVES AND FLAVONOID POLYPHENOLS AND USES THEREOF” (Animal Biosciences, Inc., priority 2021, published 2023):
Entries after “also recorded” stand apart in the source; their conditions may differ.

Experiments:
male Beagle dogs = assay: Seven day repeat dose tolerability study of NaR; format: in vivo, Canis familaris (dog)/Beagle; details: oral capsule, 10, 20 and 30 mg/kg/day for seven days
Experimental: The objective of this study was to evaluate the tolerability and pharmacokinetic profile following 7-days of repeat dose administration of NaR.
NaR is provided as 100 mg capsule, size 4, stored at 18-26° C., and fisetin is provided as 100 mg capsule, size 0, stored at 18-26° C. Canis familaris (dog)/Beagle—nine non-naïve males, age 1-3 years, weight 7-11 kg.
(§1) The appropriate number of NaR capsules were administered once daily to non-naïve male beagle dogs. Capsules were followed by at least 5 mL of tap water to ensure complete delivery. Animals were fed approximately 2 hours prior to dosing, with food removed approximately 2 hours post-dose. Samples for bioanalysis were collected during the pre-dose period (Day −7; based on Time Zero of 9 am) at 0, 0.25, 0.5, 1, 2, 4, 6, 8, 12, and 24 hours post-Time Zero. Samples were collected on Day 1 and 7 at 0, 0.25, 0.5, 1, 2, 4, 6, 8, 12, and 24 hours post dose, and on Days 3-5 at 2 hours post dose. Samples were analyzed for NAD+ using a bioassay.

[1] = test system: mature purpose-bred beagles and mongrels; assay: Activity and safety of orally administered NaR, 28-day placebo-controlled study; format: in vivo
Excerpt: A double blinded, placebo-controlled, non-randomized laboratory study to assess activity and safety was completed in 15 mature purpose-bred beagles and mongrels over a period of 28 days. The four males and 11 females ranged in age from 4-11 years, with a mean of 7.75 years. Body weights for beagles (n=12) were 9.5-15 kg and for mongrels (n=3) 24-40 kg. The animals were fitted with activity collars and housed in a room that allowed free movement for ˜ nine hours per day. They received three enrichment periods of 15 minutes per day consisting of interaction with caretakers. The activity of the animals was tracked 24 hours per day using actigraphy (accelerometers attached to the animal's collar) and force plate analysis for assessing changes to gait. A modified canine cognitive dysfunction rating (CCDR) (Madari et al., “Assessment of Severity and Progression of Canine Cognitive Dysfunction Syndrome Using the Canine Dementia Scale (CADES),” Applied Animal Behaviour Science 171: 138-145 (2015), which is hereby incorporated by reference in its entirety) and canine orthopedic index (COI) (Brown, D., “The Canine Orthopedic Index. Step 1: Devising the Items,” Veterinary Surgery 43: 232-240 (2014); Brown, D., “The Canine Orthopedic Index. Step 2: Psychometric Testing,” Veterinary Surgery 43: 241-246 (2014); and Brown, D., “The Canine Orthopedic Index. Step 3: Responsiveness Testing,” Veterinary Surgery 43: 247-254 (2014), which are hereby incorporated by reference in their entirety) were completed pretreatment, and on days 14 and 28. Physical examination, body weight, body condition score (BCS) and complete blood count and blood chemistry were evaluated pretreatment and weekly. The animals were dosed orally with capsules daily after an overnight fast.

purpose-bred beagles = assay: Tolerability of orally administered NaR, single dose escalation and 7-day repeat dosing; format: in vivo
Experimental: The tolerability of NaR administered orally was determined in a two-phase laboratory study in purpose-bred beagles (male and female, 6.3-9.2 kg, 6 months old at the start of the study). The first phase of the study included single dose escalations of 100, 300, 1000 and 2000 mg/kg (n=4 per group). The second phase tested repeat dosing consisting of daily dosing over seven days of 100, 300 and 1000 mg/kg (n=6 per group). Administration occurred via oral gavage with an 18 French catheter into the stomach. The animals were assigned to groups by a stratified randomization scheme designed to achieve similar group mean body weights. Males and females were randomized separately.

aged C56BL/6 male mice = assay: Frailty measurements in aged mice (Frailty Index, FRIGHT Age, AFRAID score); format: in vivo
Experimental: Frailty was measured in aged C56BL/6 male mice, starting at 18 months old (n=50 per group) monthly, over time compared with placebo-treated controls. NaR was administered in the water in low and high dosages of 60 and 400 mg/kg. The animals were group housed 4 per cage and the water was changed weekly. The animals were fed ad libitum and received daily photoperiods of approximately 12 hours of light alternating with 12 hours of darkness.
Three validated scoring methods, Frailty Index (Whitehead et al., “A clinical frailty index in aging mice: Comparisons with frailty index data in humans” J Gerontol A Biol Sci Med Sci. 69:621-632(2014)), FRIGHT Age (Schultz et al., “Age and life expectancy clocks based on machine learning analysis of mouse frailty” Nature Comm. 11(1):4618 (2020)) and AFRAID score (Schultz et al., “Age and life expectancy clocks based on machine learning analysis of mouse frailty” Nature Comm. 11(1):4618 (2020)) were conducted at 25 months of age. […]

NAD = assay: Bioavailability and pharmacokinetics of NaR and fisetin: whole blood NAD (Example 6, Studies #1 and #2); format: in vivo, Canis familaris (dog)/Beagle
Experimental: A series of pharmacokinetic studies were conducted to evaluate the bioavailability of a series of dosages and dosing regimens as measured in whole blood in non-fasted, adult Beagle dogs. NaR, NMN, Fisetin, individually and combination dosing (NaR-Fisetin and NMN-Fisetin) were tested.
Tables 1 and 2 show the dosing regimens of Study #1 conducted over 7 days and Study #2 conducted over 28 days, respectively. In Study #1, three dosage combinations were tested (Groups 1-3). An additional group (Group 4) was included to test the effects of fasting on the whole blood concentration of NAD. In Study #2, the effects of each compound individually and in combination were evaluated (Groups 1-3). Study #2 contained another test group (Group 4), which was included to compare the effects of NMN vs NaR in combination with Fisetin by Day 7 to determine if the effects seen on NAD concentration were unique to NaR vs. NAD booster, in general. Baseline NAD concentrations sampled over 24 hours on day −7 served as controls for endogenous NAD concentrations.
Two mL blood samples were collected at each time point using K2EDTA as an anticoagulant from all animals in each dose group. A sample was obtained prior to dosing (Day −7 pre-dose). On Day −7, groups 1-3 had 1 sample collected prior to feeding, and at times 0, 0.25, 0.5, 1, 2, 4, 6, 8, 12, and 24 hours post-Time Zero. On Day 2, groups 1-3 had 1 sample collected prior to feeding (˜2 hr prior to Time Zero) and at times 0, 0.25, 0.5, 1, 2, 4, 6, 8, 12, and 24 hours post-dose. On Days 3-5, samples were collected 2 hours post-dose, and on Day 7 samples were collected prior to feeding Groups 1-3 (˜2 hours prior to Time Zero) from all animals, and at time points 0.25, 0.5, 1, 2, 4, 6, 8, 12, and 24 hours post-dose.
For Group 2, on Day 21, post-dosing, and on Day 35, one sample was collected prior to feeding, and at times 0, 0.25, 0.5, 1, 2, 4, 6, 8, 12, and 24 hours post-Time Zero. The samples were processed for NAD+.
Two mL blood samples were collected at each time point using K2EDTA as an anticoagulant from all animals in each dose group. On Day 0 each group had 1 sample collected at times 0, 0.5, 1, 2, 4, 8, and 12 hours post-Time Zero. On Days 1, 2, 3, and 7, each group had 1 sample collected at times 0, 0.5, 1, 2, 4, 8, and 12 hours post-dose. On Days 14, 21, and 28 Groups 1-3 had samples taken at 0, 0.5, 1, 2, and 12 hours post-dose.
Immediately after collection, the sample tubes were inverted multiple times to ensure homogenization, then placed in an ice water bath until analysis. All samples were processed for NAD+ analysis and Fisetin analysis.
The bioanalytical data was used in the generation of a pharmacokinetic data using parameters calculated for each individual animal for Days 2 and 7, including: Tmax, Cmax, AUC0-24 and T½, as described in the previous examples, and the effect of repeat dosing on exposure was assessed by statistical analyses, e.g., mean and standard deviation for numerical parameters.

NAD+ = assay: Treated whole blood NAD+ pharmacokinetics after 7-day oral NaR (Examples 1 and 4); format: in vivo, Canis familaris (dog)/Beagle
Experimental: as §1
A non-compartmental Pharmacokinetic (PK) approach consistent with oral route of administration was used to estimate PK parameters in Watson LIMS (version 7.5). All parameters were generated from individual concentrations in treated whole blood whenever practical. Mean values for each dose group were also reported. All concentration values were in ng/mL, and all time points were in hours. Nominal dose concentrations and sampling times were used. The observed maximum treated whole blood concentration (Cmax), time of Cmax (Tmax), and AUC (area under the concentration vs. time curve) were determined directly from the data during the entire 24 hour time interval post dosing. The dose levels were either 10, 20, or 30 mg/kg/day (Groups 1, 2, and 3, respectively). PK samples were collected on days −7 predose, 1 and 7 post dose, of a seven day once daily study. Samples on days 3, 4, and 5 postdose, at only one timepoint were collected but not included in PK parameter estimation.
Whenever possible, standard deviation and coefficient of variation determined by Watson LIMS were used. For analyses that were not supported by Watson, i.e. custom comparisons, Excel was used, and the statistics were reported as determined by Excel algorithms.

[2] = treated dogs compared with controls, oral capsules daily, 28 days
[3] = beagles, oral gavage, highest dosage tested
[4] = beagles, oral gavage, single 100-2000 mg/kg and 7-day 100-1000 mg/kg
[5] = Beagle dogs, all dosing regimens of Studies #1 and #2
[6] = Beagle dogs, oral NaR 10, 20, 30 mg/kg/day, post dose

## O=C([O-])c1ccc[n+]([C@@H]2O[C@H](CO)[C@@H](O)[C@H]2O)c1 [NaR, nicotinic acid riboside]
Male Beagle dogs
  test article-related effects on mortality or moribundity, clinical observations, body weight, food consumption; tolerability: no test article-related effects; also recorded: well tolerated
[1]; oral capsules daily, 28 days
  adverse clinical observations: No adverse clinical observations
  blood chemistry and hematology results: remained within the reference ranges
[1]; pretreatment, days 14 and 28
  canine cognitive dysfunction rating (CCDR) and canine orthopedic index (COI): No changes
[1]; [2]
  movement when resting (sleep), actigraphy: less movement when resting
  overall activity (frequency and intensity), diurnal rhythm, actigraphy: increase in overall activity
purpose-bred beagles; 300 and 1000 mg/kg males, 300 mg/kg females, Day 2 vs pretreatment, low magnitude (e.g., 0 U/L to 2 U/L)
  increase in sorbitol dehydrogenase (SDH) activity: non-adverse
purpose-bred beagles; [3]
  maximum tolerated dosage, 7-day repeat dosing phase: 1000 mg/kg/day
  maximum tolerated dosage, single dosing phase: 2000 mg/kg
purpose-bred beagles; [4]
  Body weights and food consumption: unaffected by treatment
  Survival: All animals survived
  treatment related clinical observations: no treatment related clinical observations
Aged C56BL/6 male mice; in two of the three methods
  Frailty vs controls, both treatment groups (60 and 400 mg/kg): significantly different
Aged C56BL/6 male mice; low dose 60 mg/kg in the water, end of the study, p<0.05
  Frailty vs controls by all three methods (Frailty Index, FRIGHT Age, AFRAID score): significantly less frail
NAD; [5]
  median AUC0-24 of whole blood NAD: 133,000 ng·h/mL
  median Cmax of whole blood NAD: 6990 ng/mL
NAD; NaR only dosing, 20 mg/kg
  NAD concentration from Day 7 to Day 28: decrease
NAD; NaR only dosing, all dose levels
  NAD concentration from Day 1 to Day 7: increase
NAD; NaR only, dose of 20 mg/kg
  AUC and NAD concentrations, NaR only dose levels compared: highest AUC and NAD concentrations
NAD+; [6]
  Median Tmax of NAD+ in treated whole blood: less than 2 hours
  Tmax of NAD+, range of values: 0 to 2 h
NAD+; Beagle dogs, oral capsule, 10-30 mg/kg/day, 7 days
  NAD+ levels after oral capsule administration: measurable increases
NAD+; all dose groups (10, 20, 30 mg/kg/day)
  Mean Cmax of NAD+, change between Day 1 and Day 7: accumulation; also recorded: increase
NAD+; highest dose group (30 mg/kg/day) compared to the others
  NAD+ Cmax ratio between Day 7 and Day 1, individual animals: clear increase
NAD+; mid dose group (20 mg/kg/day) compared to the other two groups
  NAD+ AUC0-24 ratio between Day 7 and Day 1, individual animals: higher value
NAD+; oral capsule, Beagle dogs
  Bioavailability (conclusion from NAD+ bioanalysis): bioavailable

## O=c1c(O)c(-c2ccc(O)c(O)c2)oc2cc(O)ccc12 [fisetin, 3,3′,4′,7-tetrahydroxyflavone]
NAD; fisetin only dosing
  NAD concentration at Day 28: returned to baseline
  NAD concentration at days 7, 14 and 21: decreased
NAD; fisetin only dosing, 20 mg/kg
  whole blood NAD concentration: below 7000 ng/mL
